Test results published in ChEMBL document CHEMBL5303304, “EUbOPEN Chemogenomics Library - IncuCyte” (2023).

Assays:
Format in all cases: toxicity, cell-based
[1] = test system: HEK-293T; test: Incucyte cell viability with HEK293T; conditions: human, 10 µM, compound concentration 10 uM
[2] = test system: Fibroblast; test: Incucyte cell viability with human fibroblast; conditions: 10 µM, compound concentration 10 uM
[3] = test system: U2OS; test: Incucyte cell viability with U2OS; conditions: human, 10 µM, compound concentration 10 uM
Note: unitless GR value; below 1 slowed growth and below 0 cell loss.

SMILES | Growth Rate ([1]; 0 h, replicate number 2) | Growth Rate ([1]; 6 h, replicate number 1) | Growth Rate ([1]; 12 h, replicate number 1) | Growth Rate ([1]; 18 h, replicate number 1) | Growth Rate ([1]; 24 h, replicate number 1) | Growth Rate ([2]; 0 h, replicate number 1) | Growth Rate ([2]; 24 h, replicate number 2) | Growth Rate ([3]; 12 h, replicate number 1) | Growth Rate ([3]; 18 h, replicate number 1) | Growth Rate ([3]; 18 h, replicate number 2) | Growth Rate ([3]; 24 h, replicate number 1) | Growth Rate ([3]; 24 h, replicate number 2) | Growth Rate ([2]; 0 h, replicate number 2) | Growth Rate ([2]; 6 h, replicate number 1) | Growth Rate ([2]; 18 h, replicate number 1) | Growth Rate ([2]; 18 h, replicate number 2) | Growth Rate ([3]; 6 h, replicate number 1) | Growth Rate ([3]; 0 h, replicate number 1) | Growth Rate ([3]; 12 h, replicate number 2) | Growth Rate ([2]; 12 h, replicate number 2) | also measured
CS(=O)(=O)c1ccc(-c2cnc(N)c(C(=O)Nc3ccccc3)n2)cc1 | 0.8 | -0.29 | -0.15 | 0.01 | 0.07 | -0.93 | 0.74 | 0.87 | 0.77 | 0.93 | 0.88 | 0.77 | – | – | – | – | – | – | – | – | Growth Rate ([1]; 6 h, replicate number 2): -0.17; Growth Rate ([1]; 12 h, replicate number 2): -0.14; Growth Rate ([1]; 18 h, replicate number 2): -0.07; Growth Rate ([1]; 24 h, replicate number 2): 0.05; Growth Rate ([2]; 24 h, replicate number 1): 0.85
Cn1cc(-c2ccc(-c3cncc(Cl)c3N3CCC4(CCNC4=O)CC3)cc2)cn1 | 0.95 | 0.13 | 0.3 | 0.34 | 0.5 | – | 0.8 | 0.59 | 0.96 | – | – | – | -0.3 | 0.61 | 0.56 | 0.87 | 0.58 | – | – | – | Growth Rate ([1]; 6 h, replicate number 2): 0.24; Growth Rate ([1]; 12 h, replicate number 2): 0.63; Growth Rate ([1]; 18 h, replicate number 2): 0.67; Growth Rate ([1]; 24 h, replicate number 2): 0.67; Growth Rate ([2]; 12 h, replicate number 1): 0.75; Growth Rate ([2]; 24 h, replicate number 1): 0.49; Growth Rate ([3]; 0 h, replicate number 2): 0.82
CN(C)C/C=C/C(=O)Nc1ccc(C(=O)Nc2cccc(Nc3ncc(Cl)c(-c4c[nH]c5ccccc45)n3)c2)cc1 | -0.53 | – | – | – | – | – | 0.7 | – | 0.29 | 0.55 | 0.16 | 0.28 | – | – | – | – | – | -1 | 0.57 | – | –
O=C(CNC(=O)c1ccc(-c2ccccc2)cc1)NC1CCCc2ccccc21 (centres undefined) | -0.65 | 0.23 | -0.08 | 0.26 | 0.39 | – | 0.7 | 0.67 | 0.43 | – | 0.55 | 0.93 | – | – | – | 0.42 | 0.38 | 0.77 | 0.9 | 0.26 | Growth Rate ([1]; 6 h, replicate number 2): 0.73; Growth Rate ([1]; 12 h, replicate number 2): 0.41; Growth Rate ([1]; 18 h, replicate number 2): 0.38; Growth Rate ([1]; 24 h, replicate number 2): 0.46; Growth Rate ([2]; 6 h, replicate number 2): 0.27
COc1ccc(N(C(=O)Nc2c(C)cccc2C)c2cc(Nc3ccc(N4CCN(C)CC4)cc3)ncn2)c(OC)c1 | 1 | – | – | – | – | – | – | 0.77 | 0.25 | 0.14 | -0.25 | -0.2 | -0.56 | – | – | – | 0.85 | 0.61 | 0.57 | – | Growth Rate ([3]; 6 h, replicate number 2): 0.97
O=C(NCc1ccc(F)cc1)C1CCN(S(=O)(=O)c2cc(Cl)cc(Cl)c2)CC1 | -0.42 | 0.66 | 0.95 | 0.7 | 0.78 | – | 0.67 | 0.86 | 0.9 | 0.98 | – | 0.98 | 0.31 | 0.84 | 0.84 | 0.46 | 0.81 | – | 0.98 | 0.3 | Growth Rate ([2]; 12 h, replicate number 1): 0.58; Growth Rate ([2]; 24 h, replicate number 1): 0.76; Growth Rate ([3]; 0 h, replicate number 2): 0.76; Growth Rate ([3]; 6 h, replicate number 2): 0.72
CN(C)C(=O)Cn1cc(-c2ccc(-c3nnc4ccccn34)cc2)cn1 | 0.91 | 0.81 | 0.91 | – | – | – | 0.99 | 0.76 | – | 0.96 | 0.67 | 0.99 | -0.65 | 0.9 | – | 0.9 | 0.9 | 0.43 | 0.88 | 0.97 | –
COCCCS(=O)(=O)c1cc(C)c(-c2ccc(F)c3c2CC[C@H]3Oc2ccc3c(c2)OC[C@H]3CC(=O)O)c(C)c1 | -0.02 | 0.78 | 0.83 | 0.82 | 0.81 | – | – | – | 0.79 | 0.88 | – | 0.9 | 0.7 | 1 | – | – | 0.63 | – | 0.95 | – | Growth Rate ([3]; 0 h, replicate number 2): -1; Growth Rate ([3]; 6 h, replicate number 2): 0.65
CC[C@@H](C(=O)OC)n1c(=O)c2ccccc2n(Cc2cn(C)c3cccc(C)c23)c1=O | -0.42 | – | – | – | – | -1 | – | – | – | 0.96 | 0.92 | 0.9 | – | 0.75 | 0.75 | 0.48 | – | – | 0.97 | 0.49 | Growth Rate ([2]; 6 h, replicate number 2): -0.9; Growth Rate ([2]; 12 h, replicate number 1): 1; Growth Rate ([3]; 0 h, replicate number 2): 0.16
COc1cc(C)c(S(=O)(=O)N(C)CCOCC(=O)N(C)[C@H]2CCC[C@@H](N3CCN(C)CC3)C2)c(C)c1.O=C(O)C(O)C(O)C(=O)O | 0.26 | – | – | – | – | -1 | 0.92 | – | – | – | – | – | – | 0.87 | 0.93 | 0.67 | – | – | 0.86 | 0.57 | Growth Rate ([2]; 6 h, replicate number 2): -0.57
CCc1nc(C2CCC2)n2nc(-c3ccccc3)[nH]c(=O)c12 | -0.05 | -0.09 | 0.44 | 0.64 | 0.75 | – | 0.86 | – | – | 0.95 | – | – | – | – | – | 0.5 | 0.84 | 0.68 | – | -0.29 | Growth Rate ([1]; 12 h, replicate number 2): 0.76; Growth Rate ([1]; 18 h, replicate number 2): 0.76; Growth Rate ([1]; 24 h, replicate number 2): 0.91; Growth Rate ([2]; 6 h, replicate number 2): -0.72
CO[C@@H](C)CN1CC[C@]2(C)c3cc(O)ccc3C[C@H]1C2(C)C.Cl | 0.15 | – | – | – | – | -1 | – | 0.82 | – | – | – | – | -0.8 | 0.93 | 1 | – | 0.69 | 0.91 | – | 0.89 | Growth Rate ([3]; 6 h, replicate number 2): 0.47
CC(C)N(C(=O)C1CCOCC1)c1cc(F)c(Oc2ncc(Cn3nccn3)cc2C(F)(F)F)cc1C(=O)O | 0.61 | – | – | – | – | 0.24 | – | – | – | 0.98 | – | 0.93 | -0.36 | 0.7 | – | – | 0.91 | 0.83 | – | – | Growth Rate ([2]; 12 h, replicate number 1): 0.85
CN1CCN(C(=O)c2ccc(N(C)c3ncc(C(F)(F)F)c(N[C@@H]4CCC[C@@H]4C(N)=O)n3)cc2)CC1.Cl | 0.56 | 1 | 0.91 | – | – | – | 0.9 | – | – | – | – | 1 | – | – | – | 0.35 | – | – | – | -0.02 | Growth Rate ([1]; 6 h, replicate number 2): 0.56; Growth Rate ([2]; 6 h, replicate number 2): -0.99
N#Cc1ccc(C#CC[C@@H](C#N)NC(=O)[C@H]2CCCCN2)cc1F.O=C(O)C(F)(F)F | -0.1 | – | – | – | – | -1 | – | – | – | 0.73 | – | 0.73 | – | 0.94 | 0.86 | – | 0.86 | – | 0.78 | – | Growth Rate ([2]; 24 h, replicate number 1): 0.92; Growth Rate ([3]; 0 h, replicate number 2): 0.12; Growth Rate ([3]; 6 h, replicate number 2): 0.95
COc1cccc(-c2c(C)c(Cc3c(F)cccc3C(F)(F)F)c3n(c2=O)[C@@H]([C@@H](N)c2ccccc2)CS3)c1F | -0.28 | – | – | 0.72 | 0.6 | -1 | 0.87 | 0.52 | 0.62 | 0.91 | 0.37 | 0.93 | – | 0.51 | 0.92 | – | 0.48 | 0.81 | 0.75 | 0.73 | Growth Rate ([1]; 12 h, replicate number 2): 0.52; Growth Rate ([1]; 18 h, replicate number 2): 0.5; Growth Rate ([1]; 24 h, replicate number 2): 0.46; Growth Rate ([2]; 6 h, replicate number 2): -0.66; Growth Rate ([2]; 24 h, replicate number 1): 0.83; Growth Rate ([3]; 0 h, replicate number 2): -0.8; Growth Rate ([3]; 6 h, replicate number 2): 0.4
CN(C)C(=O)c1cc2cnc(Nc3ccc(N4CCN(CCCCNC(=O)COc5cccc6c5C(=O)N(C5CCC(=O)NC5=O)C6=O)CC4)cn3)nc2n1C1CCCC1 (centres undefined) | 0.78 | 0.52 | – | 0.88 | 1 | -1 | – | – | 0.93 | – | 0.95 | – | – | – | – | – | – | -1 | – | – | Growth Rate ([1]; 6 h, replicate number 2): 0.46; Growth Rate ([1]; 12 h, replicate number 2): 0.81; Growth Rate ([1]; 18 h, replicate number 2): 0.67; Growth Rate ([1]; 24 h, replicate number 2): 0.81; Growth Rate ([3]; 0 h, replicate number 2): 0.74; Growth Rate ([3]; 6 h, replicate number 2): 0.65
